The source of these data is US6369106B1 (Yissum Research Development Company of the Hebrew …, priority 1996, dated 2002).

The nature of data set [1]: Crossing the blood-brain-barrier: compound level in brain extracts by HPLC after IP injection. The class given is in vivo, C57BL/6J mice. The conditions noted are these: mice, IP 0.25-4 mg, 15 min after injection. How it is done: Detection of compound j (referred to in this Example also as CEA) was established using high performance liquid chromatography (HPLC). To this end, CEA was treated with a fluorescent thiolyte reagent (monobromobimane reagent) and analyzed on an HPLC column.
Crossing the blood-brain-barrier: In vivo experiments were carried out on C57BL/6J mice (15 grams) injected IP with compound J. After incubation (15 min, 60 min or 4 hours) the mice were anesthetized with ether and blood samples were drawn. Then mice underwent perfusion with 50 ml of saline, injected into the right ventricle. The levels of compound I in the brain and in the plasma were detected by selective fluorescent labeling using high performance liquid chromatography (HPLC).
Increasing amounts of compound J were injected IP and 15 min later, mice were perfused with saline and compound J levels in the brain extracts were determined by HPLC chromatography (FIG. 5b), as compared to a control, pure, uninjected compound J (FIG. 5a).

Data set [2] concerns Neuroblastoma SHSY5Y (NB) cells. The experiment in a line: Protection from oxidative stress in vitro, neutral red survival assay. The class given is cell-based. The conditions noted are these: compound at 0.1 mM, 6-OHDA 0.1-0.25 mM, MPP+ 0.5-2 mM, 24 hours. How it is done:
Protection from oxidative stress in vitro: Neuroblastoma SHSY5Y (NB) cells were maintained in Dulbeco's Modified Eagle's Medium (DMEM), supplemented with 8% FCS and 8% horse serum, penicillin (25 μg/ml), streptomycin (25 μg/ml), 2 mM L-glutamine and 400 μg/ml G418 (Gibco/BRL). For protection experiments cells were subcultured (in 2% serum) to poly-L-lysine-coated 96-well microtiter plates (Nunc), 100 μl of 5×10^5 cells/ml, CEA was applied to the cells in each well and 4 hours later DA, L-dopa (levodopa), 6-OHDA and MPP+ were added for 24 hours.
Survival was assayed by adding neutral red (0.34%, Sigma) to cells in DCCM-1 medium (0.1 ml/well, Bet-Haemek) and incubation for 2 hour at 37° C. The cells were then washed with cold PBS containing 10 mM MgCl2 and the dye was dissolved in 50% ethanol in 50% Somerson buffer (70 mM sodium citrate, 30 mM citric acid, 0.1 N HCl). ELISA reader (590 nm) was used to measure the remaining color intensity.

The next data set concerns GSH levels. The experiment in a line: Brain GSH levels after IP injection (HPLC). Format: in vivo, C57BL/6J mice.

Take `CC(=O)NC(CS)C(N)=O` (stereo not shown) [compound J]: the “Compound level in the brain” value in data set [1] was “concentration-dependent increase”. In addition, the figures for the “Protection of NB cells against toxicity (>50%) of DA, L-dopa, 6-OHDA and MPP+” value in data set [2] and in data set [2] (listed as Compound J) were “protect the cells” and “protect NB cells”, respectively. Besides, in the data set on GSH levels, the “Endogenous GSH levels in mice brain, effect in words” value is given as “increases endogenous GSH levels”.
